Experimental data as given in article PMC5788404 (Journal of Medicinal Chemistry, 2017).
Entries after “also recorded” stand apart in the source; their conditions may differ.

Tests used:
[1] = molecular target: T1, VBC protein (VHL:ElonginB:ElonginC protein complex) (Homo sapiens, UniProt P40337); type: binding; conditions: based on FP results, GE = ΔpKd/ΔHA (heavy atoms)
T1 construct: made in house

[2] = molecular target: T2, VBC complex (VHL:ElonginB:ElonginC) (Homo sapiens, UniProt P40337); type: binding; conditions: for LE: LE = −RT ln Kd/NHA; for LE / LLE: on the basis of ITC results; for LLE: LLE = pKd–Log D
T2 construct: made in house
T2 sequence (Q15369 17-112): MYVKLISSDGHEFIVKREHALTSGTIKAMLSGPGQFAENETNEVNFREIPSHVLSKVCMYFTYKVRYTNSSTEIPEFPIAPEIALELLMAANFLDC
T2 sequence (P40337 54-213): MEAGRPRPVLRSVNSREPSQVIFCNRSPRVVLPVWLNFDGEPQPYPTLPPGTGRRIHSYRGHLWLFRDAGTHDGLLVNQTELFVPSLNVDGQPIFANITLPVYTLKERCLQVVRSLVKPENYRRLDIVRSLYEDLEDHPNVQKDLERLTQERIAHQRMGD
T2 sequence (Q15370 1-104, further chain): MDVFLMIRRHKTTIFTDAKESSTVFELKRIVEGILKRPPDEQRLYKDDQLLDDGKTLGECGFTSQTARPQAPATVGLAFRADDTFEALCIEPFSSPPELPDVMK

[3] = Parallel Artificial Membrane Permeability Assay (PAMPA); type: in vitro ADME; conditions: pH 7.4, as printed in text and footnote
[4] = Intrinsic clearance (Cli) in liver microsomes; type: in vitro ADME; conditions: female CD1 mouse liver microsomes, 0.5 μM compound
[5] = tested on: HeLa cells; assay: Colony formation assay; type: cell-based, Human; conditions: 150 μM
[6] = Intracellular drug concentration (accumulation in HeLa cells); type: in vitro ADME, Human; conditions: human; HeLa cell lysate, equilibrium dialysis; read-out: Fraction unbound (fu)
[7] = tested on: HeLa cells; assay: as above; type: in vitro ADME, Human; conditions: HeLa cells, 50 μM, 2 h
[8] = molecular target: T3, immobilized VBC protein (Homo sapiens, UniProt P40337); assay: biochemical; type: binding; conditions: for Dissociative t1/2: t1/2 = ln2/koff; for kon: SPR
T3 construct: made in house
T3 sequence (Q15369 17-112): as the sequence (Q15369 17-112) above
T3 sequence (Q15370 1-104, further chain): as the sequence (Q15370 1-104, further chain) above
T3 sequence (P40337 54-213): as the sequence (P40337 54-213) above

[9] = tested on: HeLa cells; assay: Proliferation assay; type: cell-based, Human; conditions: 150 μM, relative to DMSO vehicle
[10] = tested on: HIF-1α; assay: cells; conditions: Homo sapiens, HeLa, 2 h, read-out: HIF-1α Stabilization (Protein % levels), HeLa cells, 50 μM inhibitor, 2 h, Western blot, normalized to level observed with 1

T1 sequence (P40337 54-213): as above
T1 sequence (Q15369 17-112, further chain): as the sequence (Q15369 17-112) above
T1 sequence (Q15370 1-104, further chain): as the sequence (Q15370 1-104, further chain) above

For Cc1ncsc1-c1ccc(CNC(=O)[C@@H]2C[C@@H](O)CN2C(=O)[C@@H](NC(=O)CO)C(C)(C)C)cc1 [Inhibitor 3, (2S,4R)-4-Hydroxy-1-((S)-2-(2-hydroxyacetamido)-3,3-dimethylbutanoyl)-N-(4-(4-methylthiazol-5-yl)benzyl)pyrrolidine-2-carboxamide], the “GE (group efficiency)” value [1] was −0.11, the LE [2] was 0.27 kcal × mol^-1 × NHA^-1 and the LLE [2] was 6.28 kcal × mol^-1 × NHA^-1.

For Cc1ncsc1-c1ccc(CNC(=O)[C@@H]2C[C@@H](O)CN2C(=O)[C@@H](NC(=O)C2(C#N)CC2)C(C)(C)C)cc1 [Inhibitor 15, (2S,4R)-1-((S)-2-(1-Cyanocyclopropanecarboxamido)-3,3-dimethylbutanoyl)-4-hydroxy-N-(4-(4-methylthiazol-5-yl)benzyl)pyrrolidine-2-carboxamide], the Papp at 5 h, 10 μM [3] was 1.94 ×10⁻⁶ cm/s, the “Microsomal stability (intrinsic clearance)” value (“Microsomal stability” below) [4] was 3.1 mL/min/g and the “toxicity in colony formation assay” value [5] was “no toxicity”. For the same compound, the fraction unbound [6] was 0.0007 and the “Compound associated with cells” value [7] was 150.0 µM.

In the case of Cc1ncsc1-c1ccc(CNC(=O)[C@@H]2C[C@@H](O)CN2C(=O)[C@@H](NC(=O)C2(F)CC2)C(C)(C)C)cc1 [Inhibitor 10, (2S,4R)-1-((S)-2-(1-Fluorocyclopropanecarboxamido)-3,3-dimethylbutanoyl)-4-hydroxy-N-(4-(4-methylthiazol-5-yl)benzyl)pyrrolidine-2-carboxamide], the Papp at 5 h, 10 μM [3] is reported as 2.71 ×10⁻⁶ cm/s, the “Dissociative t1/2” value ([8]; 10°C (first value of cell)) is reported as 11.94 ± 0.08 s and the “Dissociative t1/2” value ([8]; 20°C (second value of cell)) is reported as 7.073 ± 0.007 s. The “Microsomal stability” value [4] was 2.9 mL/min/g, the “toxicity in colony formation assay” value [5] was “a degree of cytotoxicity; also recorded: toxicity” and the “toxicity in cell-proliferation assay” value [9] was “notably decreased cell proliferation; also recorded: toxicity”. For the same compound, the fraction unbound [6] was 0.0002, the “Compound associated with cells” value [7] was 383.6 µM and the “Final free compound concentration in cells” value [7] was 0.071 µM.

With CC(C)NCC(O)COc1cccc2ccccc12 (centres unmarked) [propanolol, reference compound] the “Compound associated with cells” value [7] was 2679.0 µM.

For Cc1ncsc1-c1ccc(CNC(=O)[C@@H]2C[C@@H](O)CN2C(=O)[C@@H](NC(=O)C2(F)CC2)C(C)O)cc1 (stereo in doubt) [Inhibitor 14, (2S,4R)-1-((2S,3S)-2-(1-Fluorocyclopropanecarboxamido)-3-hydroxybutanoyl)-4-hydroxy-N-(4-(4-methylthiazol-5-yl)benzyl)pyrrolidine-2-carboxamide], the “GE (group efficiency)” value [1] was “–0.19”.

COCCc1ccc(OCC(O)CNC(C)C)cc1 (centres unmarked) [Metoprolol, reference compound] showed a fraction unbound [6] of 0.005.

In the case of Cc1ncsc1-c1ccc(CNC(=O)[C@@H]2C[C@@H](O)CN2C(=O)[C@@H](NC(=O)CC(C)(C)C)C(C)(C)C)cc1 [Inhibitor 5, (2S,4R)-1-((S)-2-(3,3-Dimethylbutanamido)-3,3-dimethylbutanoyl)-4-hydroxy-N-(4-(4-methylthiazol-5-yl)benzyl)pyrrolidine-2-carboxamide], the “GE (group efficiency)” value [1] is reported as −0.12.

With Cc1ncsc1-c1ccc(CNC(=O)[C@@H]2C[C@@H](O)CN2C(=O)[C@@H](NC(=O)OC(C)(C)C)C(C)(C)C)cc1 [Inhibitor 2] the “GE (group efficiency)” value [1] was −0.41.

In the case of CC(=O)NC1(C(=O)N[C@H](C(=O)N2C[C@H](O)C[C@H]2C(=O)NCc2ccc(-c3scnc3C)cc2)C(C)(C)C)CC1 [Inhibitor 17, (2S,4R)-1-((S)-2-(1-Acetamidocyclopropanecarboxamido)-3,3-dimethylbutanoyl)-4-hydroxy-N-(4-(4-methylthiazol-5-yl)benzyl)pyrrolidine-2-carboxamide], the “GE (group efficiency)” value [1] is reported as “–0.05”, the LE [2] is reported as 0.24 kcal × mol^-1 × NHA^-1 and the LLE [2] is reported as 6.28 kcal × mol^-1 × NHA^-1.

With Cc1ncsc1-c1ccc(CNC(=O)[C@@H]2C[C@@H](O)CN2C(=O)[C@@H](NC(=O)C(F)(F)F)C(C)(C)C)cc1 [Inhibitor 7, (2S,4R)-1-((S)-3,3-Dimethyl-2-(2,2,2-trifluoroacetamido)butanoyl)-4-hydroxy-N-(4-(4-methylthiazol-5-yl)benzyl)pyrrolidine-2-carboxamide] the “GE (group efficiency)” value [1] was −0.08.

In the case of Cc1ncsc1-c1ccc(CNC(=O)[C@@H]2C[C@@H](O)CN2C(=O)[C@@H](NC(=O)C(Cl)(Cl)Cl)C(C)(C)C)cc1 [Inhibitor 8, (2S,4R)-1-((S)-3,3-Dimethyl-2-(2,2,2-trichloroacetamido)butanoyl)-4-hydroxy-N-(4-(4-methylthiazol-5-yl)benzyl)pyrrolidine-2-carboxamide], the “GE (group efficiency)” value [1] is reported as −0.04.

In the case of Cc1ncsc1-c1ccc(CNC(=O)[C@@H]2C[C@@H](O)CN2C(=O)[C@@H](NC(=O)C(C)(C)F)C(C)(C)C)cc1 [Inhibitor 9, (2S,4R)-1-((S)-2-(2-Fluoro-2-methylpropanamido)-3,3-dimethylbutanoyl)-4-hydroxy-N-(4-(4-methylthiazol-5-yl)benzyl)pyrrolidine-2-carboxamide], the “GE (group efficiency)” value [1] is reported as −0.24.

With CC(=O)N[C@H](C(=O)N1C[C@H](O)C[C@H]1C(=O)NCc1ccc(-c2scnc2C)cc1)C(C)(C)C [Inhibitor 1] the “Microsomal stability” value [4] was 0.7 mL/min/g, the fraction unbound [6] was 0.0016 and the “Compound associated with cells” value [7] was 463.8 µM. The Emax at 50 µM [10] was 100 ± 7%.

With Cc1ncsc1-c1ccc(CNC(=O)[C@@H]2C[C@@H](O)CN2C(=O)[C@@H](N2CCCC2=O)C(C)(C)C)cc1 [Inhibitor 12, (2S,4R)-1-((S)-3,3-Dimethyl-2-(2-oxopyrrolidin-1-yl)butanoyl)-4-hydroxy-N-(4-(4-methylthiazol-5-yl)benzyl)pyrrolidine-2-carboxamide] the “GE (group efficiency)” value [1] was −0.48.

In the case of CC(=O)C1(C(=O)N[C@H](C(=O)N2C[C@H](O)C[C@H]2C(=O)NCc2ccc(-c3scnc3C)cc2)C(C)(C)C)CC1 [Inhibitor 16, (2S,4R)-1-((S)-2-(1-Acetylcyclopropanecarboxamido)-3,3-dimethylbutanoyl)-4-hydroxy-N-(4-(4-methylthiazol-5-yl)benzyl)pyrrolidine-2-carboxamide], the “GE (group efficiency)” value [1] is reported as “–0.01”, the LE [2] is reported as 0.25 kcal × mol^-1 × NHA^-1 and the LLE [2] is reported as 5.63 kcal × mol^-1 × NHA^-1. For the same compound, the Papp at 5 h, 10 μM [3] was 1.5 ×10⁻⁶ cm/s, the “Dissociative t1/2” value ([8]; 10°C (first value of cell)) was 10.04 ± 0.01 s and the “Dissociative t1/2” value ([8]; 20°C (second value of cell)) was 4.101 ± 0.007 s. For the same compound, the kon ([8]; 10°C) was 600000 M⁻¹ s⁻¹, the kon ([8]; 20°C) was 820000 M⁻¹ s⁻¹ and the “Microsomal stability” value [4] was 2.5 mL/min/g. The fraction unbound [6] was 0.0008, the “Compound associated with cells” value [7] was 100.0 µM and the “Final free compound concentration in cells” value [7] was 0.046 µM.

For Cc1ncsc1-c1ccc(CNC(=O)[C@@H]2C[C@@H](O)CN2C(=O)[C@@H](NC(=O)C2CCC2)C(C)(C)C)cc1 [Inhibitor 18, (2S,4R)-1-((S)-2-(Cyclobutanecarboxamido)-3,3-dimethylbutanoyl)-4-hydroxy-N-(4-(4-methylthiazol-5-yl)benzyl)pyrrolidine-2-carboxamide], the “GE (group efficiency)” value [1] was “–0.07”, the LE [2] was 0.25 kcal × mol^-1 × NHA^-1 and the LLE [2] was 5.38 kcal × mol^-1 × NHA^-1. The “Dissociative t1/2” value ([8]; 10°C (first value of cell)) was 4.95 ± 0.01 s, the “Dissociative t1/2” value ([8]; 20°C (second value of cell)) was 2.71 ± 0.01 s and the kon ([8]; 10°C) was 517000 M⁻¹ s⁻¹. The kon ([8]; 20°C) was 1.1e+06 M⁻¹ s⁻¹, the “Microsomal stability” value [4] was 3.0 mL/min/g and the fraction unbound [6] was 0.0008. For the same compound, the “Compound associated with cells” value [7] was 204.0 µM and the “Final free compound concentration in cells” value [7] was 0.093 µM.

For Cc1ncsc1-c1ccc(CNC(=O)[C@@H]2C[C@@H](O)CN2C(=O)[C@@H](NC(=O)C2CC2)C(C)(C)C)cc1 [Inhibitor 6, (2S,4R)-1-((S)-2-(Cyclopropanecarboxamido)-3,3-dimethylbutanoyl)-4-hydroxy-N-(4-(4-methylthiazol-5-yl)benzyl)pyrrolidine-2-carboxamide], the “GE (group efficiency)” value [1] was −0.02, the LE [2] was 0.26 kcal × mol^-1 × NHA^-1 and the LLE [2] was 5.68 kcal × mol^-1 × NHA^-1.

For Cc1ncsc1-c1ccc(CNC(=O)[C@@H]2C[C@H](O)CN2C(=O)[C@@H](NC(=O)C2(F)CC2)C(C)(C)C)cc1 [cis-10, (2S,4S)-1-((S)-2-(1-Fluorocyclopropanecarboxamido)-3,3-dimethylbutanoyl)-4-hydroxy-N-(4-(4-methylthiazol-5-yl)benzyl)pyrrolidine-2-carboxamide], the “binding to VHL” value ([2]; ITC and FP binding curves, Figure 2) was “no longer binds to VHL”, the “toxicity in colony formation assay” value [5] was “a degree of cytotoxicity” and the “toxicity in cell-proliferation assay” value [9] was “a degree of cytotoxicity”.
